In series [1] the test system is honey bees. Description: Time course of lipase activity (RFU) in honey bees challenged with imidacloprid. It is filed as in vivo, Apis mellifera. As to the method:
Healthy honey bees were challenged in a cup-cage environment with either 5 ppb or 50 ppb of the neonicotinoid imidacloprid. The lipase activity levels were measured during a 50 minute time course, as taught herein.
To determine if it is possible to detect a difference between healthy bees and DWV-infected bees using the EnzChek lipase substrate and the buffers taught herein, a time course assay was performed using a set amount of EnzChek lipase substrate and a fixed amount of extracted pupae. […] In this figure, the relative fluorescence intensity (RFU) measured was plotted against time. Using linear regression, a significant difference in slopes was observable between individuals from DWV-infected hives, and individuals from healthy hives. The slope obtained for DWV-infected individuals was about 13.8 higher than the slope obtained for healthy individuals.
Healthy seven and fourteen-day-old emerging adult honey bees were obtained from field colonies and were challenged with either 5 ppb or 50 ppb of the neonicotinoid imidacloprid. Same-aged bees were collected from unchallenged colonies acted as controls. The lipase activity levels were measured during a 30-minute time course, as in Example 3. […] Statistical significance was determined using pair-wise Kaplan Meier linear regression (P<0.01).

Series [2] has as its system honey bees. Description: Total lipid content of imidacloprid-challenged bees, vanillin assay. It counts as in vivo, Apis mellifera. On the procedure: The total lipid content on bees challenged with either 5 ppb or 50 ppb imidacloprid was measured using the vanillin assay, performed as in Example 4. The measured lipid levels (in mg/mL) were plotted, and the results are shown on FIG. 10. The total lipid content for bees treated with 5 ppb imidacloprid (P<0.01) or 50 ppb imidacloprid (P<0.05) was approximately 3-fold lower than the total lipid content measured in control bees.
To determine if the lipase activity measured in healthy and DWV-infected hives correlated with the measured lipid levels, the vanillin assay (Foray, V., et al., 2012, “A handbook for uncovering the complete energetic budget in insects: the van Handel's method (1985) revisited,” Physiol. Entomol. 37: 295-302) was used to measure the lipid levels in the bees. Briefly, vanillin reagent was prepared by mixing vanillin (V1104; Sigma-Aldrich, St. Louis, Mo., USA) with 68% ortho-phosphoric acid, reaching a final concentration of 1.2 g/L. For the assay, 100 μL of homogenized pupae in PBS was transferred into a borosilicate microplate well and heated at 90° C. until complete solvent evaporation. Ten microliters of 98% sulphuric acid was then added to each well, and the microplate was incubated at 90° C. for 2 minutes in a water bath. […] The plate was homogenized, incubated at room temperature for 15 minutes and its absorbance was measured spectrophotometrically at 525 nm.

Take `O=[N+]([O-])NC1=NCCN1Cc1ccc(Cl)nc1` [imidacloprid, 1-(6-chloro-3-pyridylmethyl)-N-nitroimidazolidin-2-ylideneamine]: in series [1] (bees challenged with 5 ppb imidacloprid), the “lipase activity levels (slope of RFU against time) compared with control bees” value is “similar”. The “lipase activity levels (RFU against time) compared with control bees” value in series [1] (bees challenged with 50 ppb imidacloprid, linear regression P<0.01) is on record as “significantly higher”. Also, the “total lipid content, fold lower than control bees” value was “approximately 3 fold” in series [2] (bees treated with 5 ppb imidacloprid, P<0.01) and “approximately 3 fold” in series [2] (bees treated with 50 ppb imidacloprid, P<0.05).

(Values after patent US20210199658A1, “DETECTION OF LIPASE ACTIVITY IN HONEY BEES” (The United States of America, as Represented by the …, priority 2019, published 2021).)
